Laboratory results taken from US4409210A, “Antibiotic compound” (priority 1982, dated 1983).
Converted amounts (≈) assume the structure as drawn. Where two headings read alike, the source gives them in different places.

Key:
Assay type in all cases: cell-based
[1] = test system: Bacteroides fragilis A22053; assay: MIC, serial two-fold dilution method (anaerobic)
[2] = test system: Fusobacterium necrophorum A20013; assay: MIC, serial two-fold dilution method (anaerobic)
[3] = test system: Clostridium perfringens A9635; assay: microbe, parasite or virus in culture; details: Clostridium perfringens, A9635, read-out: minimum inhibitory concentration (MIC)
[4] = test system: Propionibacterium acnes A22650; assay: MIC, serial two-fold dilution method (anaerobic); details: Cutibacterium acnes
[5] = test system: Proteus mirabilis A9554; assay: MIC, serial two-fold dilution method (aerobic)
[6] = test system: Staphylococcus aureus Smith; assay: MIC, serial two-fold dilution method (aerobic); details: read-out: minimum inhibitory concentration (MIC)
[7] = test system: Staphylococcus aureus A20610; assay: MIC, serial two-fold dilution method (aerobic)
[8] = test system: Clostridium difficile A21972; assay: MIC, serial two-fold dilution method (anaerobic); details: Clostridioides difficile
Procedure: (§1) The minimum inhibitory concentration (MIC) of Bu-2517 was determined for a variety of aerobic and anaerobic bacteria by the serial two-fold dilution method using a multi-inoculating apparatus. Mueller-Hinton agar was generally used for aerobic bacteria, GC medium (Eiken) for fastidious aerobic organisms such as streptococci, Neisseria and Haemophilus species, and GAM agar medium (Nissui) for anaerobic bacteria. The inoculum size was adjusted to 10^6 CFU/ml for streptococci, Neisseria and Haemophilus species, 10^4 for other aerobic bacteria and 10^7 -10^8 for all anaerobic organisms. Amphomycin, ampicillin, chloramphenicol, clindamycin, erthromycin, kanamycin and vancomycin were used as reference antibiotics.

[9] = test system: Clostridium difficile A21675; assay: MIC, serial two-fold dilution method (anaerobic); details: Clostridioides difficile
Procedure: as §1

[10] = test system: Clostridium septicum A21869; assay: MIC, serial two-fold dilution method (anaerobic)
Procedure: as §1

[11] = test system: Clostridium chauvoei A9561; assay: MIC, serial two-fold dilution method (anaerobic)
Procedure: as §1

[12] = test system: Bacteroides fragilis A20929; assay: MIC, serial two-fold dilution method (anaerobic)
[13] = test system: Staphylococcus aureus A9601; assay: MIC, serial two-fold dilution method (aerobic)
[14] = test system: Micrococcus flavus D-12; assay: MIC, serial two-fold dilution method (aerobic)
[15] = test system: Peptostreptococcus anaerobius A21905; assay: MIC, serial two-fold dilution method (anaerobic)
[16] = test system: Klebsiella pneumoniae D-11; assay: MIC, serial two-fold dilution method (aerobic)
[17] = test system: Peptostreptococcus intermedius A21881; assay: MIC, serial two-fold dilution method (anaerobic)
[18] = test system: Proteus vulgaris A9436; assay: MIC, serial two-fold dilution method (aerobic)
[19] = test system: Bacteroides fragilis A20928-1; assay: MIC, serial two-fold dilution method (anaerobic)
[20] = test system: Bacteroides ovatus A22400; assay: MIC, serial two-fold dilution method (anaerobic)
[21] = test system: Peptococcus magnas A21676; assay: MIC, serial two-fold dilution method (anaerobic); details: read-out: minimum inhibitory concentration (MIC)
[22] = test system: Staphylococcus aureus A20394; assay: MIC, serial two-fold dilution method (aerobic)
[23] = test system: Bacillus anthracis IID-115; assay: microbe, parasite or virus in culture; details: Bacillus anthracis, IID115, read-out: minimum inhibitory concentration (MIC)
[24] = test system: Escherichia coli NIHJ; assay: MIC, serial two-fold dilution method (aerobic); details: read-out: minimum inhibitory concentration (MIC)
[25] = test system: Staphylococcus aureus #193; assay: MIC, serial two-fold dilution method (aerobic); details: read-out: minimum inhibitory concentration (MIC)
[26] = test system: Clostridium acidiurici A9560; assay: MIC, serial two-fold dilution method (anaerobic); details: Gottschalkia acidurici
[27] = test system: Veillonella parvula A20010; assay: MIC, serial two-fold dilution method (anaerobic)
[28] = Bacteroides fragilis A22053, GAM agar medium, inoculum 10^7-10^8, read-out: minimum inhibitory concentration (MIC)
[29] = Fusobacterium necrophorum A20013, GAM agar medium, inoculum 10^7-10^8, read-out: minimum inhibitory concentration (MIC)
[30] = Propionibacterium acnes A22650, GAM agar medium, inoculum 10^7-10^8, read-out: minimum inhibitory concentration (MIC)
[31] = Proteus mirabilis A9554, Mueller-Hinton agar, inoculum 10^4, read-out: minimum inhibitory concentration (MIC)
[32] = Staphylococcus aureus Smith, Mueller-Hinton agar, inoculum 10^4
[33] = Staphylococcus aureus A20610, Mueller-Hinton agar, inoculum 10^4, read-out: minimum inhibitory concentration (MIC)
[34] = Clostridium difficile A21972, GAM agar medium, inoculum 10^7-10^8, read-out: minimum inhibitory concentration (MIC)
[35] = Clostridium difficile A21675, GAM agar medium, inoculum 10^7-10^8, read-out: minimum inhibitory concentration (MIC)
[36] = Clostridium septicum A21869, GAM agar medium, inoculum 10^7-10^8, read-out: minimum inhibitory concentration (MIC)
[37] = Clostridium chauvoei A9561, GAM agar medium, inoculum 10^7-10^8, read-out: minimum inhibitory concentration (MIC)
[38] = Bacteroides fragilis A20929, GAM agar medium, inoculum 10^7-10^8, read-out: minimum inhibitory concentration (MIC)
[39] = Staphylococcus aureus A9601, Mueller-Hinton agar, inoculum 10^4, read-out: minimum inhibitory concentration (MIC)
[40] = D12, Micrococcus flavus D-12, Mueller-Hinton agar, inoculum 10^4, read-out: minimum inhibitory concentration (MIC)
[41] = Peptostreptococcus anaerobius A21905, GAM agar medium, inoculum 10^7-10^8, read-out: minimum inhibitory concentration (MIC)
[42] = D11, Klebsiella pneumoniae D-11, Mueller-Hinton agar, inoculum 10^4, read-out: minimum inhibitory concentration (MIC)
[43] = Peptostreptococcus intermedius A21881, GAM agar medium, inoculum 10^7-10^8, read-out: minimum inhibitory concentration (MIC)
[44] = Proteus vulgaris A9436, Mueller-Hinton agar, inoculum 10^4, read-out: minimum inhibitory concentration (MIC)
[45] = A209281, Bacteroides fragilis A20928-1, GAM agar medium, inoculum 10^7-10^8, read-out: minimum inhibitory concentration (MIC)
[46] = Bacteroides ovatus A22400, GAM agar medium, inoculum 10^7-10^8, read-out: minimum inhibitory concentration (MIC)
[47] = Peptococcus magnas A21676, GAM agar medium, inoculum 10^7-10^8
[48] = Staphylococcus aureus A20394, Mueller-Hinton agar, inoculum 10^4, read-out: minimum inhibitory concentration (MIC)
[49] = Escherichia coli NIHJ, Mueller-Hinton agar, inoculum 10^4
[50] = Staphylococcus aureus #193, Mueller-Hinton agar, inoculum 10^4
[51] = Clostridium acidiurici A9560, GAM agar medium, inoculum 10^7-10^8, read-out: minimum inhibitory concentration (MIC)
[52] = Veillonella parvula A20010, GAM agar medium, inoculum 10^7-10^8, read-out: minimum inhibitory concentration (MIC)

## CC[C@H]1OC(=O)[C@H](C)[C@@H](O[C@H]2C[C@@](C)(OC)[C@@H](O)[C@H](C)O2)[C@H](C)[C@@H](O[C@@H]2O[C@H](C)C[C@H](N(C)C)[C@H]2O)[C@](C)(O)C[C@@H](C)C(=O)[C@H](C)[C@@H](O)[C@]1(C)O [Erythromycin]
[1]; [28]
  MIC: 3.1 µg/mL (≈ 4.22 µM)
[2]; [29]
  MIC: > 100 µg/mL
[3]
  MIC: 0.8 µg/mL (≈ 1.09 µM)
[4]; [30]
  MIC: < 0.0063 µg/mL
[5]; [31]
  MIC: > 100 µg/mL
[6]; [32]
  MIC: 0.2 µg/mL (≈ 0.273 µM)
[7]; [33]
  MIC: > 100 µg/mL
[8]; [34]
  MIC: 3.1 µg/mL (≈ 4.22 µM)
[9]; [35]
  MIC: > 100 µg/mL
[10]; [36]
  MIC: 0.8 µg/mL (≈ 1.09 µM)
[11]; [37]
  MIC: 1.6 µg/mL (≈ 2.18 µM)
[12]; [38]
  MIC: 1.6 µg/mL (≈ 2.18 µM)
[13]; [39]
  MIC: 0.4 µg/mL (≈ 0.545 µM)
[14]; [40]
  MIC: < 0.05 µg/mL
[15]; [41]
  MIC: 0.8 µg/mL (≈ 1.09 µM)
[16]; [42]
  MIC: 100 µg/mL (≈ 136 µM)
[17]; [43]
  MIC: 0.4 µg/mL (≈ 0.545 µM)
[18]; [44]
  MIC: 100 µg/mL (≈ 136 µM)
[19]; [45]
  MIC: 0.013 µg/mL (≈ 0.0177 µM)
[20]; [46]
  MIC: > 100 µg/mL
[21]; [47]
  MIC: 0.8 µg/mL (≈ 1.09 µM)
[22]; [48]
  MIC: 0.2 µg/mL (≈ 0.273 µM)
[23]
  MIC: 0.4 µg/mL (≈ 0.545 µM)
[24]; [49]
  MIC: 100 µg/mL (≈ 136 µM)
[25]; [50]
  MIC: 0.4 µg/mL (≈ 0.545 µM)
[26]; [51]
  MIC: 1.6 µg/mL (≈ 2.18 µM)
[27]; [52]
  MIC: 3.1 µg/mL (≈ 4.22 µM)

## CN[C@H](CC(C)C)C(=O)N[C@H]1C(=O)N[C@@H](CC(N)=O)C(=O)N[C@H]2C(=O)N[C@H]3C(=O)N[C@H](C(=O)N[C@H](C(=O)O)c4cc(O)cc(O)c4-c4cc3ccc4O)[C@H](O)c3ccc(c(Cl)c3)Oc3cc2cc(c3O[C@@H]2O[C@H](CO)[C@@H](O)[C@H](O)[C@H]2O[C@H]2C[C@](C)(N)[C@H](O)[C@H](C)O2)Oc2ccc(cc2Cl)[C@H]1O [Vancomycin]
[1]; Bacteroides fragilis, A22053, read-out: minimum inhibitory concentration (MIC)
  MIC: 50 µg/mL (≈ 34.5 µM)
[2]; Fusobacterium necrophorum, A20013, read-out: minimum inhibitory concentration (MIC)
  MIC: > 100 µg/mL
[3]
  MIC: 1.6 µg/mL (≈ 1.1 µM)
[4]; A22650, read-out: minimum inhibitory concentration (MIC)
  MIC: 0.8 µg/mL (≈ 0.552 µM)
[5]; Proteus mirabilis, A9554, read-out: minimum inhibitory concentration (MIC)
  MIC: > 100 µg/mL
[6]; Staphylococcus aureus
  MIC: 0.8 µg/mL (≈ 0.552 µM)
[7]; Staphylococcus aureus, A20610, read-out: minimum inhibitory concentration (MIC)
  MIC: 0.8 µg/mL (≈ 0.552 µM)
[8]; A21972, read-out: minimum inhibitory concentration (MIC)
  MIC: 1.6 µg/mL (≈ 1.1 µM)
[9]; A21675, read-out: minimum inhibitory concentration (MIC)
  MIC: 0.8 µg/mL (≈ 0.552 µM)
[10]; Clostridium septicum, A21869, read-out: minimum inhibitory concentration (MIC)
  MIC: 0.8 µg/mL (≈ 0.552 µM)
[11]; Clostridium chauvoei, A9561, read-out: minimum inhibitory concentration (MIC)
  MIC: 0.8 µg/mL (≈ 0.552 µM)
[12]; Bacteroides fragilis, A20929, read-out: minimum inhibitory concentration (MIC)
  MIC: 0.8 µg/mL (≈ 0.552 µM)
[13]; Staphylococcus aureus, A9601, read-out: minimum inhibitory concentration (MIC)
  MIC: 0.8 µg/mL (≈ 0.552 µM)
[14]; Micrococcus flavus, D12, read-out: minimum inhibitory concentration (MIC)
  MIC: 0.2 µg/mL (≈ 0.138 µM)
[15]; Peptostreptococcus anaerobius, A21905, read-out: minimum inhibitory concentration (MIC)
  MIC: 0.4 µg/mL (≈ 0.276 µM)
[16]; Klebsiella pneumoniae, D11, read-out: minimum inhibitory concentration (MIC)
  MIC: > 100 µg/mL
[17]; Peptostreptococcus, A21881, read-out: minimum inhibitory concentration (MIC)
  MIC: 1.6 µg/mL (≈ 1.1 µM)
[18]; Proteus vulgaris, A9436, read-out: minimum inhibitory concentration (MIC)
  MIC: > 100 µg/mL
[19]; Bacteroides fragilis, A209281, read-out: minimum inhibitory concentration (MIC)
  MIC: 3.1 µg/mL (≈ 2.14 µM)
[20]; Bacteroides ovatus, A22400, read-out: minimum inhibitory concentration (MIC)
  MIC: 50 µg/mL (≈ 34.5 µM)
[21]
  MIC: < 0.05 µg/mL
[22]; Staphylococcus aureus, A20394, read-out: minimum inhibitory concentration (MIC)
  MIC: 0.4 µg/mL (≈ 0.276 µM)
[23]
  MIC: 1.6 µg/mL (≈ 1.1 µM)
[24]; Escherichia coli
  MIC: > 100 µg/mL
[25]; Staphylococcus aureus
  MIC: 0.8 µg/mL (≈ 0.552 µM)
[26]; A9560, read-out: minimum inhibitory concentration (MIC)
  MIC: 0.8 µg/mL (≈ 0.552 µM)
[27]; Veillonella parvula, A20010, read-out: minimum inhibitory concentration (MIC)
  MIC: 0.8 µg/mL (≈ 0.552 µM)

## CC1(C)S[C@@H]2[C@H](NC(=O)[C@H](N)c3ccccc3)C(=O)N2[C@H]1C(=O)O [Ampicillin]
[1]; [28]
  MIC: 6.3 µg/mL (≈ 18 µM)
[2]; [29]
  MIC: > 100 µg/mL
[3]
  MIC: 0.2 µg/mL (≈ 0.572 µM)
[4]; [30]
  MIC: 0.05 µg/mL (≈ 0.143 µM)
[5]; [31]
  MIC: 0.8 µg/mL (≈ 2.29 µM)
[6]; [32]
  MIC: 0.05 µg/mL (≈ 0.143 µM)
[7]; [33]
  MIC: 12.5 µg/mL (≈ 35.8 µM)
[8]; [34]
  MIC: 0.2 µg/mL (≈ 0.572 µM)
[9]; [35]
  MIC: 1.6 µg/mL (≈ 4.58 µM)
[10]; [36]
  MIC: 0.8 µg/mL (≈ 2.29 µM)
[11]; [37]
  MIC: 0.4 µg/mL (≈ 1.14 µM)
[12]; [38]
  MIC: 0.8 µg/mL (≈ 2.29 µM)
[13]; [39]
  MIC: 0.4 µg/mL (≈ 1.14 µM)
[14]; [40]
  MIC: 0.1 µg/mL (≈ 0.286 µM)
[15]; [41]
  MIC: 0.1 µg/mL (≈ 0.286 µM)
[16]; [42]
  MIC: 0.8 µg/mL (≈ 2.29 µM)
[17]; [43]
  MIC: 0.1 µg/mL (≈ 0.286 µM)
[18]; [44]
  MIC: 0.4 µg/mL (≈ 1.14 µM)
[19]; [45]
  MIC: 0.2 µg/mL (≈ 0.572 µM)
[20]; [46]
  MIC: 25 µg/mL (≈ 71.5 µM)
[21]; [47]
  MIC: 0.1 µg/mL (≈ 0.286 µM)
[22]; [48]
  MIC: 3.1 µg/mL (≈ 8.87 µM)
[23]
  MIC: 0.013 µg/mL (≈ 0.0372 µM)
[24]; [49]
  MIC: 0.4 µg/mL (≈ 1.14 µM)
[25]; [50]
  MIC: 1.6 µg/mL (≈ 4.58 µM)
[26]; [51]
  MIC: 0.8 µg/mL (≈ 2.29 µM)
[27]; [52]
  MIC: 0.4 µg/mL (≈ 1.14 µM)
